Reference: patent US11357779B2 (G1 Therapeutics, Inc., priority 2018, dated 2022)
Read-outs that look alike come from different tables or passages of the source.

Assay: Noncompartmental pharmacokinetic parameters (Cmax, Tmax, AUC, Racc) in QD and BID cohorts of Form B
Type: in vivo, human
Settings: human, plasma, oral
Experimental: Analysis of plasma concentration versus time data for calculation of standard pharmacokinetic (PK) parameters following oral administration was conducted using Phoenix WinNonlin version 6.3 using actual blood sampling times.
The following pharmacokinetic parameters were calculated from the concentration versus time data obtained in Example 1 for each of the above QD (200 mg, 300 mg, 400 mg, 500 mg, or 650 mg dosed) and BID (100 mg, 150 mg, or 200 mg doses) Form B of Compound II dosage cohorts: • Cmax—the observed peak plasma concentration determined from the plasma concentration versus time data obtained on Day 1 and Day 29, as applicable; • Tmax—the time to reach the observed peak plasma concentration from the plasma concentration versus time data obtained on Day 1 and Day 29, as applicable; • AUC—area under the plasma concentration versus time curve during a dosing interval on Day 1 and Day 29, as applicable; and • Racc—accumulation ratio calculated as AUCDay 29/AUCDay 1.

Question: What does the source list for `CC(C)N1CCN(c2ccc(Nc3ncc4cc5n(c4n3)C3(CCCCC3)CNC5=O)nc2)CC1` [Compound I, 2′-((5-(4-isopropylpiperazin-1-yl)pyridin-2-yl)amino)-7′,8′-dihydro-6′H-spiro[cyclohexane-1,9′-pyrazino[1′,2′:1,5]pyrrolo[2,3-d]pyrimidin]-6′-one]?
Answer: Cmax (300 mg, Cohort 2, 300 mg QD of Form B, Day 1, upon exclusion of data for patient that vomited immediately after dosing, read-out: Cmax, Mean): 55.2 ng/mL; AUC(0-t) (300 mg, Cohort 2, 300 mg QD of Form B, Day 1, read-out: AUClast, Mean): 413 ng·h/mL; AUC(0-t) (300 mg, Cohort 2, 300 mg QD of Form B, Day 1, read-out: AUClast, Median): 554 ng·h/mL; Cmax (300 mg, Cohort 2, 300 mg QD of Form B, Day 1, read-out: Cmax, Mean): 40.2 ng/mL; Cmax (300 mg, Cohort 2, 300 mg QD of Form B, Day 1, read-out: Cmax, Median): 44.3 ng/mL; Tmax (300 mg, Cohort 2, 300 mg QD of Form B, Day 1, read-out: Tmax, Mean): 4.67 h; Tmax (300 mg, Cohort 2, 300 mg QD of Form B, Day 1, read-out: Tmax, Median): 4 h; AUC(0-t) (300 mg, Compound I, 300 mg QD of Form B, Cohort 2, Day 29, read-out: AUClast (Mean)): 592 ng·h/mL; AUC(0-t) (300 mg, Compound I, 300 mg QD of Form B, Cohort 2, Day 29, read-out: AUClast (Median)): 604 ng·h/mL; Cmax (300 mg, Compound I, 300 mg QD of Form B, Cohort 2, Day 29, read-out: Cmax (Mean)): 47 ng/mL; Cmax (300 mg, Compound I, 300 mg QD of Form B, Cohort 2, Day 29, read-out: Cmax (Median)): 40.5 ng/mL; Tmax (300 mg, Compound I, 300 mg QD of Form B, Cohort 2, Day 29, read-out: Tmax (Mean)): 6 h; Tmax (300 mg, Compound I, 300 mg QD of Form B, Cohort 2, Day 29, read-out: Tmax (Median)): 4 h; AUC(0-t) (400 mg, Cohort 3, 400 mg QD of Form B, Day 1, read-out: AUClast, Mean): 202 ng·h/mL; AUC(0-t) (400 mg, Cohort 3, 400 mg QD of Form B, Day 1, read-out: AUClast, Median): 183 ng·h/mL; Cmax (400 mg, Cohort 3, 400 mg QD of Form B, Day 1, read-out: Cmax, Mean): 20.1 ng/mL; Cmax (400 mg, Cohort 3, 400 mg QD of Form B, Day 1, read-out: Cmax, Median): 21.6 ng/mL; Tmax (400 mg, Cohort 3, 400 mg QD of Form B, Day 1, read-out: Tmax, Mean): 6 h; Tmax (400 mg, Cohort 3, 400 mg QD of Form B, Day 1, read-out: Tmax, Median): 6 h; AUC(0-t) (400 mg, Compound I, 400 mg QD of Form B, Cohort 3, Day 29, read-out: AUClast (Mean)): 278 ng·h/mL; AUC(0-t) (400 mg, Compound I, 400 mg QD of Form B, Cohort 3, Day 29, read-out: AUClast (Median)): 348 ng·h/mL; Cmax (400 mg, Compound I, 400 mg QD of Form B, Cohort 3, Day 29, read-out: Cmax (Mean)): 19 ng/mL; Cmax (400 mg, Compound I, 400 mg QD of Form B, Cohort 3, Day 29, read-out: Cmax (Median)): 23.5 ng/mL; Tmax (400 mg, Compound I, 400 mg QD of Form B, Cohort 3, Day 29, read-out: Tmax (Mean)): 5.33 h; Tmax (400 mg, Compound I, 400 mg QD of Form B, Cohort 3, Day 29, read-out: Tmax (Median)): 6 h; AUC(0-t) (500 mg, Cohort 4, 500 mg QD of Form B, Day 1, read-out: AUClast, Mean): 577 ng·h/mL; AUC(0-t) (500 mg, Cohort 4, 500 mg QD of Form B, Day 1, read-out: AUClast, Median): 611 ng·h/mL; Cmax (500 mg, Cohort 4, 500 mg QD of Form B, Day 1, read-out: Cmax, Mean): 48.9 ng/mL; Cmax (500 mg, Cohort 4, 500 mg QD of Form B, Day 1, read-out: Cmax, Median): 49.6 ng/mL; Tmax (500 mg, Cohort 4, 500 mg QD of Form B, Day 1, read-out: Tmax, Mean): 5.75 h; Tmax (500 mg, Cohort 4, 500 mg QD of Form B, Day 1, read-out: Tmax, Median): 6 h; AUC(0-t) (500 mg, Compound I, 500 mg QD of Form B, Cohort 4, Day 29, read-out: AUClast (Mean)): 607 ng·h/mL; AUC(0-t) (500 mg, Compound I, 500 mg QD of Form B, Cohort 4, Day 29, read-out: AUClast (Median)): 591 ng·h/mL; Cmax (500 mg, Compound I, 500 mg QD of Form B, Cohort 4, Day 29, read-out: Cmax (Mean)): 43.2 ng/mL; Cmax (500 mg, Compound I, 500 mg QD of Form B, Cohort 4, Day 29, read-out: Cmax (Median)): 45 ng/mL; Tmax (500 mg, Compound I, 500 mg QD of Form B, Cohort 4, Day 29, read-out: Tmax (Mean)): 5.33 h; Tmax (500 mg, Compound I, 500 mg QD of Form B, Cohort 4, Day 29, read-out: Tmax (Median)): 6 h; AUC(0-t) (650 mg, Cohort 5, 650 mg QD of Form B, Day 1, read-out: AUClast, Mean): 799 ng·h/mL; AUC(0-t) (650 mg, Cohort 5, 650 mg QD of Form B, Day 1, read-out: AUClast, Median): 805 ng·h/mL; Cmax (650 mg, Cohort 5, 650 mg QD of Form B, Day 1, read-out: Cmax, Mean): 62.5 ng/mL; Cmax (650 mg, Cohort 5, 650 mg QD of Form B, Day 1, read-out: Cmax, Median): 67 ng/mL; Tmax (650 mg, Cohort 5, 650 mg QD of Form B, Day 1, read-out: Tmax, Mean): 7.67 h; Tmax (650 mg, Cohort 5, 650 mg QD of Form B, Day 1, read-out: Tmax, Median): 8 h; AUC(0-t) (650 mg, Compound I, 650 mg QD of Form B, Cohort 5, Day 29, read-out: AUClast (Mean)): 607 ng·h/mL; AUC(0-t) (650 mg, Compound I, 650 mg QD of Form B, Cohort 5, Day 29, read-out: AUClast (Median)): 591 ng·h/mL; Cmax (650 mg, Compound I, 650 mg QD of Form B, Cohort 5, Day 29, read-out: Cmax (Mean)): 43.2 ng/mL; Cmax (650 mg, Compound I, 650 mg QD of Form B, Cohort 5, Day 29, read-out: Cmax (Median)): 45 ng/mL; Tmax (650 mg, Compound I, 650 mg QD of Form B, Cohort 5, Day 29, read-out: Tmax (Mean)): 5.33 h; Tmax (650 mg, Compound I, 650 mg QD of Form B, Cohort 5, Day 29, read-out: Tmax (Median)): 6 h
